Reference: ChEMBL document CHEMBL3585308, “Discovery and Modification of in Vivo Active Nrf2 Activators with 1,2,4-Oxadiazole Core: Hits Identification and Structure-Activity Relationship Study” (J Med Chem, 2015)

target: T1, Nuclear factor erythroid 2-related factor 2 (Homo sapiens) (UniProt Q16236); assay: Activation of Nrf2 in human HepG2-ARE-C8 cells assessed as upregulation of ARE level at 80 uM after 12 hrs by luciferase reporter gene assay relative to control; type: cell-based; conditions: not given
T1 sequence (whole entry): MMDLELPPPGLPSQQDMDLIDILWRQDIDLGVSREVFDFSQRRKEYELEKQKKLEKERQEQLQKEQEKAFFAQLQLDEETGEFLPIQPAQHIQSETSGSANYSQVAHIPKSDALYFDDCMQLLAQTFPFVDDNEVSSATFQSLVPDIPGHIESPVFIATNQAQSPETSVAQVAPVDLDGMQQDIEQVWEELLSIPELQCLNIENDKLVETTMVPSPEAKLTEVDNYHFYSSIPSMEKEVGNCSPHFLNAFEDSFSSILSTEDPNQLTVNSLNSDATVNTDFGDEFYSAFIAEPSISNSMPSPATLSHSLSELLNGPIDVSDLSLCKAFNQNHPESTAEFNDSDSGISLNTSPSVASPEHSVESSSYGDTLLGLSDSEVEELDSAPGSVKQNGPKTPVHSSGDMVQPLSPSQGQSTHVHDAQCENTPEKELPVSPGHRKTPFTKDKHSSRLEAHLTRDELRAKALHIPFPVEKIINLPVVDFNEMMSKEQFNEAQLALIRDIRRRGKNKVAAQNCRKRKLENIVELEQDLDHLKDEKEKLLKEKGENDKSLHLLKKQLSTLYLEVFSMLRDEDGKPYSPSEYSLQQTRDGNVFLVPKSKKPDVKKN

fold change (FC)	SMILES
4.35	COc1ccc(-c2nc(-c3ccc4nc[nH]c4c3)no2)c(OC)c1
2.65	c1ccc(-c2nc(-c3ccc4nc[nH]c4c3)no2)nc1
5.48	Cn1nnc2ccc(-c3noc(-c4ccc(F)cc4)n3)cc21

target: T1, Nuclear factor erythroid 2-related factor 2 (Homo sapiens); assay: Activation of Nrf2 in human HepG2-ARE-C8 cells assessed as upregulation of ARE level at 0.02 uM after 12 hrs by luciferase reporter gene assay relative to control; type: cell-based; conditions: not given

fold change (FC)	SMILES
1.25	COc1ccc(-c2nc(-c3ccc4nc[nH]c4c3)no2)c(OC)c1
1.06	c1ccc(-c2nc(-c3ccc4nc[nH]c4c3)no2)nc1
1.46	Cn1nnc2ccc(-c3noc(-c4ccc(F)cc4)n3)cc21

target: T1, Nuclear factor erythroid 2-related factor 2 (Homo sapiens); assay: Activation of Nrf2 in human HepG2-ARE-C8 cells assessed as upregulation of ARE level at 2 uM after 12 hrs by luciferase reporter gene assay relative to control; type: cell-based; conditions: not given

fold change (FC)	SMILES
2.84	COc1ccc(-c2nc(-c3ccc4nc[nH]c4c3)no2)c(OC)c1
5.09	c1ccc(-c2nc(-c3ccc4nc[nH]c4c3)no2)nc1
3.17	Cn1nnc2ccc(-c3noc(-c4ccc(F)cc4)n3)cc21

tested on: HCT-116; assay: Cytotoxicity against human HCT116 cells assessed as reduction of cell proliferation at 80 uM after 24 hrs by MTT assay; type: cell-based; conditions: hct-116, 24 h

SMILES	Activity
COc1ccc(-c2nc(-c3ccc4nc[nH]c4c3)no2)c(OC)c1	Non-toxic
c1ccc(-c2nc(-c3ccc4nc[nH]c4c3)no2)nc1	Non-toxic

target: T1, Nuclear factor erythroid 2-related factor 2 (Homo sapiens); assay: Activation of Nrf2 in human HepG2-ARE-C8 cells assessed as upregulation of ARE level at 20 uM after 12 hrs by luciferase reporter gene assay relative to control; type: cell-based; conditions: not given

fold change (FC)	SMILES
8.57	COc1ccc(-c2nc(-c3ccc4nc[nH]c4c3)no2)c(OC)c1
9.49	c1ccc(-c2nc(-c3ccc4nc[nH]c4c3)no2)nc1
3.88	Cn1nnc2ccc(-c3noc(-c4ccc(F)cc4)n3)cc21

target: T1, Nuclear factor erythroid 2-related factor 2 (Homo sapiens); assay: Activation of Nrf2 in human HepG2-ARE-C8 cells assessed as upregulation of ARE level at 40 uM after 12 hrs by luciferase reporter gene assay relative to control; type: cell-based; conditions: not given

fold change (FC)	SMILES
11.6	COc1ccc(-c2nc(-c3ccc4nc[nH]c4c3)no2)c(OC)c1
7.51	c1ccc(-c2nc(-c3ccc4nc[nH]c4c3)no2)nc1
5.96	Cn1nnc2ccc(-c3noc(-c4ccc(F)cc4)n3)cc21

tested on: not listed separately; assay: Permeability of the compound at pH 7.4 by PAMPA; type: physicochemical; conditions: read-out: permeability

Papp	SMILES
19.3 nm/s	CC(C(=O)O)c1cccc(C(=O)c2ccccc2)c1 (stereo unspecified) [KETOPROFEN]
1170 nm/s	CC(C)NCC(O)COc1cccc2ccccc12 (stereo unspecified) [PROPRANOLOL]

target: T1, Nuclear factor erythroid 2-related factor 2 (Homo sapiens); assay: Activation of Nrf2 in human HepG2-ARE-C8 cells assessed as upregulation of ARE level at 0.2 uM after 12 hrs by luciferase reporter gene assay relative to control; type: cell-based; conditions: not given

fold change (FC)	SMILES
1.59	COc1ccc(-c2nc(-c3ccc4nc[nH]c4c3)no2)c(OC)c1
3.42	c1ccc(-c2nc(-c3ccc4nc[nH]c4c3)no2)nc1
1.83	Cn1nnc2ccc(-c3noc(-c4ccc(F)cc4)n3)cc21

tested on: HCT-116; assay: Cytotoxicity against human HCT116 cells assessed as effect on cell proliferation at 5 to 80 uM after 24 hrs by MTT assay; type: cell-based; conditions: hct-116, 24 h

SMILES	Activity
Cn1nnc2ccc(-c3noc(-c4ccc(F)cc4)n3)cc21	Non-toxic

target: T1, Nuclear factor erythroid 2-related factor 2 (Homo sapiens); assay: Activation of Nrf2 in human HepG2-ARE-C8 cells assessed as upregulation of ARE level at 160 uM after 12 hrs by luciferase reporter gene assay relative to control; type: cell-based; conditions: not given

fold change (FC)	SMILES
1.46	COc1ccc(-c2nc(-c3ccc4nc[nH]c4c3)no2)c(OC)c1
2.55	c1ccc(-c2nc(-c3ccc4nc[nH]c4c3)no2)nc1
8.36	Cn1nnc2ccc(-c3noc(-c4ccc(F)cc4)n3)cc21
